What is called pIC50 is the IC50 on a negative log10 scale, so that one unit is a factor of ten. Broadly, the pEC50 is the negative decadic logarithm of the EC50, by convention in mol/L. As a reminder, the pKi is −log10 of the Ki, conventionally taken in molar units. As a reminder, the MIC is the lowest concentration found to suppress growth. For orientation: CL/F means clearance divided by bioavailability, as obtained after extravascular dosing. Usually half-life stands for the time needed for the level to fall by half in the phase considered.

The results in this text go back to ChEMBL document CHEMBL4033775, “Natural-Products-Inspired Use of the gem-Dimethyl Group in Medicinal Chemistry” (J Med Chem, 2018).

pEC50, pIC50, pKi: −log10 of the molar value. In brackets after ≈: the same amount, converted by molar mass.

Data set [1] relates to 1A9. Briefly: Cytotoxicity against human 1A9 cells. The class given is functional, cell-based.
Data set [2] deals with Human immunodeficiency virus 1. Briefly: Antiviral activity against HIV1. Type of data set: functional.
The target of data set [3] is 5-hydroxytryptamine receptor 2C (Homo sapiens, UniProt P28335). Briefly: Agonist activity at human 5-HT2C receptor expressed in mouse NIH/3T3 cells assessed as induction of IP3 formation after 0.5 hrs. Type of data set: functional, cell-based.
Data set [4] addresses Prothrombin (Homo sapiens, UniProt P00734). Briefly: Inhibition of human plasma thrombin using chromogenix AB as substrate after 30 secs by UV-spectrophotometry.
The target in data set [5] is Prothrombin (Bos taurus, UniProt P00735). Briefly: Inhibition of bovine plasma thrombin using chromogenix AB as substrate after 30 secs by UV-spectrophotometry.
For data set [6], the system named is Trypanosoma brucei brucei. Briefly: Antitrypanosomal activity against Trypanosoma brucei brucei after 72 hrs by resazurin-based fluorescence assay. Type of data set: functional. On the technique in general: The colour change of resazurin is a common sign of viable cells or microbes.
In data set [7] the test system is Rattus norvegicus. Briefly: Anti-hypertensive activity in conscious spontaneously hypertensive Okamoto rat assessed as reduction in systolic blood pressure at 10 mg/kg, po measured up to 6 hrs post dose relative to control. Details: scale not given: the % may be the effect or the level left. Type of data set: functional.
The subject of data set [8] is Enterococcus faecalis. Briefly: Antibacterial activity against Enterococcus faecalis. The class given is functional.
For data set [9], the system named is Staphylococcus aureus. Briefly: Antibacterial activity against methicillin-resistant Staphylococcus aureus. Type of data set: functional.
Data set [10] addresses Retinoic acid receptor RXR-beta (Homo sapiens, UniProt P28702). Briefly: Agonist activity at RXRbeta (unknown origin).
Data set [11] deals with Retinoic acid receptor RXR-gamma (Homo sapiens, UniProt P48443). Briefly: Agonist activity at RXRgamma (unknown origin).
In data set [12] the target is Retinoic acid receptor alpha (Homo sapiens, UniProt P10276). Briefly: Agonist activity at RARaplha (unknown origin).
Data set [13] has as its target Retinoic acid receptor beta (Homo sapiens, UniProt P10826). Briefly: Agonist activity at RARbeta (unknown origin).
Data set [14] deals with Retinoic acid receptor gamma (Homo sapiens, UniProt P13631). Briefly: Agonist activity at RARgamma (unknown origin).
The test system of data set [15] is Rattus norvegicus. Briefly: Anti-hypertensive activity in conscious spontaneously hypertensive Okamoto rat assessed as reduction in systolic blood pressure at 0.3 mg/kg, po measured up to 6 hrs post dose relative to control. Type of data set: functional. More on the design: scale not given: the % may be the effect or the level left.
The test system of data set [16] is Rattus norvegicus. Briefly: Anti-hypertensive activity in conscious spontaneously hypertensive Okamoto rat assessed as reduction in systolic blood pressure at 1 mg/kg, po measured up to 6 hrs post dose relative to control. Type of data set: functional. Details: scale not given: the % may be the effect or the level left.
The species entered for data set [17] is Homo sapiens. Briefly: Antagonist activity at nAChR (unknown origin) relative to (+/-)-mecamylamine.
Data set [18] is described as follows: Inhibition of bacterial DNA gyrase subunit B. Details: species or system Bacteria.
Data set [19] addresses Sodium/hydrogen exchanger 1 (Homo sapiens, UniProt P19634). Briefly: Inhibition of human NHE1 by cell based assay.
A short description of data set [20]: Clearance in po dosed rat. The class given is ADME, organism-based. The conditions noted are these: in vivo.
Data set [21] can be described thus: Half life in po dosed rat. The conditions noted are these: in vivo. The class given is ADME, organism-based.
In data set [22] the test system is Rattus norvegicus. Briefly: Anti-hypertensive activity in conscious spontaneously hypertensive Okamoto rat assessed as reduction in systolic blood pressure at 0.1 mg/kg, po measured up to 6 hrs post dose relative to control. The class given is functional. More on the design: scale not given: the % may be the effect or the level left.
The target of data set [23] is Insulin-like growth factor 1 receptor (Homo sapiens, UniProt P08069). Briefly: Antagonist activity at human GST-tagged IGF-1R (950 to […] residues) expressed in baculovirus after 5 mins in presence of [gamma33P]-ATP by top count method.
Sequence of Insulin-like growth factor 1 receptor (P08069 31-736 limits assumed): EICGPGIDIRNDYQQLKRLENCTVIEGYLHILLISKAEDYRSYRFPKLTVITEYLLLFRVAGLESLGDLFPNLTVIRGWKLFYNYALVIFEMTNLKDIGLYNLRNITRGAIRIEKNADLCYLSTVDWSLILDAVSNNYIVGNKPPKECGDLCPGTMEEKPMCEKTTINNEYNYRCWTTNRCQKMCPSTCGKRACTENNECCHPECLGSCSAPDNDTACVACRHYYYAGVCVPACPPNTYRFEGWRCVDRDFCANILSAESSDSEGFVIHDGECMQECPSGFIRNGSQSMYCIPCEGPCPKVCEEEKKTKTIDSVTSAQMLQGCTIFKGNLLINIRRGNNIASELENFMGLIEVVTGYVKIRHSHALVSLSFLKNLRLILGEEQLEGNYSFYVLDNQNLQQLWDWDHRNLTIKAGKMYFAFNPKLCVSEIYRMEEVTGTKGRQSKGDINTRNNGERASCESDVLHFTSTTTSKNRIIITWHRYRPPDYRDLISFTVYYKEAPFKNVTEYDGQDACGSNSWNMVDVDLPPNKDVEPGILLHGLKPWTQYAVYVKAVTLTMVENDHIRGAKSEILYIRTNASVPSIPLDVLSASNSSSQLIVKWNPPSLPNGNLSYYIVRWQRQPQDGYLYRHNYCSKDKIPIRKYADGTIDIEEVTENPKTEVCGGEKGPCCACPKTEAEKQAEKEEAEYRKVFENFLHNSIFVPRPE
Sequence of Insulin-like growth factor 1 receptor (P08069 741-1367 limits assumed): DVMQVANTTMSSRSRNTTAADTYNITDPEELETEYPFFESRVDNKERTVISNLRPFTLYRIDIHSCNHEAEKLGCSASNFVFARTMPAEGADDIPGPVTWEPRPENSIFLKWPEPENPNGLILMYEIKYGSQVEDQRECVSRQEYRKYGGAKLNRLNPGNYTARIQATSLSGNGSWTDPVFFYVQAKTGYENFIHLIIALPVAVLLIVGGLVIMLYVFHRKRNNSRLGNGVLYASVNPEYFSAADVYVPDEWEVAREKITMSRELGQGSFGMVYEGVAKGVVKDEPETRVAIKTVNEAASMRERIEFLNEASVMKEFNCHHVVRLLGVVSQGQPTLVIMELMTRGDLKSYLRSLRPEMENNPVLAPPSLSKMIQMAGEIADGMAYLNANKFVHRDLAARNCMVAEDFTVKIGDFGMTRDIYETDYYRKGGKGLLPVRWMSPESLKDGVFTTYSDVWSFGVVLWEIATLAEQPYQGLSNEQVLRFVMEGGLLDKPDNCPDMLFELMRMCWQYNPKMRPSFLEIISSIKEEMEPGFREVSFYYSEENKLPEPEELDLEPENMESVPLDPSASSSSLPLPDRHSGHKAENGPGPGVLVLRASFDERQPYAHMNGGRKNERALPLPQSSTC

Sequence of 5-hydroxytryptamine receptor 2C (P28335 whole entry): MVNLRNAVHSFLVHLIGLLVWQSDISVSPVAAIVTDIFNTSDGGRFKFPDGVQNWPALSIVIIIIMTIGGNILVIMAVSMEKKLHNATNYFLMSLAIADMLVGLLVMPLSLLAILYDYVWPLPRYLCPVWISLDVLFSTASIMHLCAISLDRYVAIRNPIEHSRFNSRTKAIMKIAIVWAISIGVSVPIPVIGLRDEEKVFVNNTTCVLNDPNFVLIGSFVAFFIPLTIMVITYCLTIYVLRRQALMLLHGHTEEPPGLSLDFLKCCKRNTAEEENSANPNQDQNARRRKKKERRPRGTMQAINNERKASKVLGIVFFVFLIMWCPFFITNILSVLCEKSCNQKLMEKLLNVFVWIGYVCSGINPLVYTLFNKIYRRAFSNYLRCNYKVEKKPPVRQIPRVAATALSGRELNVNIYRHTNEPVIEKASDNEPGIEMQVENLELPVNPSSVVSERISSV
Sequence of Sodium/hydrogen exchanger 1 (P19634 whole entry): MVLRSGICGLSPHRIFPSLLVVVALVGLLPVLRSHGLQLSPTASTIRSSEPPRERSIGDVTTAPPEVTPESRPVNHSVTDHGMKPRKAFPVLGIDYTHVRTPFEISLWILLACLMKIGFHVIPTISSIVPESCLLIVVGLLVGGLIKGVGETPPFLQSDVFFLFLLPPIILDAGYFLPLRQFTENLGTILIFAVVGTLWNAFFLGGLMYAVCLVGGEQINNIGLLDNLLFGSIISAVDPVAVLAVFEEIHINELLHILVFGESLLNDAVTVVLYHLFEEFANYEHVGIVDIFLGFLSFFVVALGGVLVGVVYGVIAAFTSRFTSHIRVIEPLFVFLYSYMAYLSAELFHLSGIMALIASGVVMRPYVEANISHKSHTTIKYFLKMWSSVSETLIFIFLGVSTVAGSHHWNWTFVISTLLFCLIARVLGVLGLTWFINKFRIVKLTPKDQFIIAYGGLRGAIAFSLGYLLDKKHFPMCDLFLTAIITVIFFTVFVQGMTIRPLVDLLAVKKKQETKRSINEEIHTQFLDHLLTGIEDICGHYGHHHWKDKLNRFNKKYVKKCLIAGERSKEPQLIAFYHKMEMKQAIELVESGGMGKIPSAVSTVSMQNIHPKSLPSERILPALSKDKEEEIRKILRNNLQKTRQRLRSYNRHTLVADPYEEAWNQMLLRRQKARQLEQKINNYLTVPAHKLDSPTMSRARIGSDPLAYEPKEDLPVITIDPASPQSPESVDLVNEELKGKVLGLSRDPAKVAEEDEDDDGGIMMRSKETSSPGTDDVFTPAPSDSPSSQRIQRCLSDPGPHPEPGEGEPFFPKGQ
Sequence of Retinoic acid receptor alpha (P10276 whole entry): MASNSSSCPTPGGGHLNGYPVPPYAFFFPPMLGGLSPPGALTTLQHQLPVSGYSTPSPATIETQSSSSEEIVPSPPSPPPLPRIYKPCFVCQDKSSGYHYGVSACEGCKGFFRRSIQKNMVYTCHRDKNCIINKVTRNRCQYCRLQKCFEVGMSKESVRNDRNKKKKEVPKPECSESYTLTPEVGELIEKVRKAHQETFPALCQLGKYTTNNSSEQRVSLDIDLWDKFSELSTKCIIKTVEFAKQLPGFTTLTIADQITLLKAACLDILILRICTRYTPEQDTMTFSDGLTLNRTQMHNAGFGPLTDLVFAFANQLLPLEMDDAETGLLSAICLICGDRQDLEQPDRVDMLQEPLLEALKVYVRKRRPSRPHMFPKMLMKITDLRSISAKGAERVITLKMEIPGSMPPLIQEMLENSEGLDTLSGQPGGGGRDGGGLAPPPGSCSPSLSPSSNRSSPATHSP
Sequence of Retinoic acid receptor gamma (P13631 whole entry): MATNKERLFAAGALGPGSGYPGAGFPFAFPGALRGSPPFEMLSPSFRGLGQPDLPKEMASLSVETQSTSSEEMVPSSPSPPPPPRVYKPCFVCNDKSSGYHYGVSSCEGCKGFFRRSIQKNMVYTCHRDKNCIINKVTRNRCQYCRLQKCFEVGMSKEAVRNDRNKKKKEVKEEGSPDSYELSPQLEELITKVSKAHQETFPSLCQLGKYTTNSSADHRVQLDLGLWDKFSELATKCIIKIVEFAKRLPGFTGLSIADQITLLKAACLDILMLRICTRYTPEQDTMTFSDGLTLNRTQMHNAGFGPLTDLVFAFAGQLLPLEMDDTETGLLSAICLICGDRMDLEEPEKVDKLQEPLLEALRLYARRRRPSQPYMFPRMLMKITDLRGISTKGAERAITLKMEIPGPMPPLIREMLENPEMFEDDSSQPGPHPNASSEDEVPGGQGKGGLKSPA
Sequence of Retinoic acid receptor RXR-gamma (P48443 whole entry): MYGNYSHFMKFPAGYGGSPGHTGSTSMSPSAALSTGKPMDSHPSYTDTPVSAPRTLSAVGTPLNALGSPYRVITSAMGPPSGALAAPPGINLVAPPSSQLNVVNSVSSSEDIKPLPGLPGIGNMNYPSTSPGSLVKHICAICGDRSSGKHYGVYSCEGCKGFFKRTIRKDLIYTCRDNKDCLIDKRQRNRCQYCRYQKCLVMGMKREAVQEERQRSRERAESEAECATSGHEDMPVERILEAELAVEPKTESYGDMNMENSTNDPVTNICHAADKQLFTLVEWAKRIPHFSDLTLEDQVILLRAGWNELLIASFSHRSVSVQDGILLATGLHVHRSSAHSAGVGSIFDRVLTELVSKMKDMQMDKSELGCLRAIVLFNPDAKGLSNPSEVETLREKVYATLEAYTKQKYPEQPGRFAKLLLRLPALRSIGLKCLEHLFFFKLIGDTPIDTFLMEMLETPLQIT
Sequence of Retinoic acid receptor beta (P10826 whole entry): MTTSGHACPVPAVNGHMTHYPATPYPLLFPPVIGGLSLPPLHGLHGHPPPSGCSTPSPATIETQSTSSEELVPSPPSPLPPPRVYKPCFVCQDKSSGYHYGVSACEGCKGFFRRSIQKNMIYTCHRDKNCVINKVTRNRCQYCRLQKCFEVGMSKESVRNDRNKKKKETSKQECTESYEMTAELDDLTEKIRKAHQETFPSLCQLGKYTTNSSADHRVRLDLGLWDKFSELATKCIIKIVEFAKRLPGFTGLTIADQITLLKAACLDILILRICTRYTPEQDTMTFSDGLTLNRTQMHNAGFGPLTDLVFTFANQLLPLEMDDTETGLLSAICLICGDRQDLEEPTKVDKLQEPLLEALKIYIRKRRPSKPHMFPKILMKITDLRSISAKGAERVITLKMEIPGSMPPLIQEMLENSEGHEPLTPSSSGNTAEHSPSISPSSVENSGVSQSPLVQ
Sequence of Retinoic acid receptor RXR-beta (P28702 whole entry): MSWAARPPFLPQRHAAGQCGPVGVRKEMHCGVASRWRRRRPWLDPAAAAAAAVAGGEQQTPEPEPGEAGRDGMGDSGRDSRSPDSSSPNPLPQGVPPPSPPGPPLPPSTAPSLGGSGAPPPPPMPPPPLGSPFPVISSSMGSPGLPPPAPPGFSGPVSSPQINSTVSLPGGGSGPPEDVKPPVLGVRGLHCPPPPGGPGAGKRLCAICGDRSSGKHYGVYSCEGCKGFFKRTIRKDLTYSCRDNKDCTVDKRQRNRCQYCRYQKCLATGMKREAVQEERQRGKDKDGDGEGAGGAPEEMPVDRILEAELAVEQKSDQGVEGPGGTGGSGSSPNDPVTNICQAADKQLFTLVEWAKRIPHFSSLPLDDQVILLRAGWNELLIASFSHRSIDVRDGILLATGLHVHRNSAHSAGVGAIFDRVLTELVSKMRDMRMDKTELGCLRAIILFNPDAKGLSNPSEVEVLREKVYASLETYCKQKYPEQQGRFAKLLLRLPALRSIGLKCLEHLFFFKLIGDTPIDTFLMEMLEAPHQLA

`C/C(=C\c1csc(C)n1)[C@@H]1C[C@@H]2O[C@]2(C)CCC[C@H](C)[C@H](O)[C@@H](C)C(=O)C(C)(C)[C@@H](O)CC(=O)O1` [PATUPILONE] gave a pIC50 in data set [1] of 10.22.
The compound `C=C(C)[C@@H]1CC[C@]2(C(=O)O)CC[C@]3(C)[C@H](CC[C@@H]4[C@@]5(C)CC[C@H](O)C(C)(C)[C@@H]5CC[C@]43C)[C@@H]12` [BETULINIC ACID] gave a pEC50 in data set [2] of 5.85.
On to `CCCc1cc(=O)oc2c3c(c4c(c12)OC(C)(C)C=C4)O[C@H](C)[C@@H](C)[C@@H]3O` [CALANOLIDE A], for which, in [2], the negative-log EC50 (pEC50) is 8.55.
With `COc1ccc2c(c1)-c1c(cnn1C[C@H](C)N)C2`, the pKi in [3] was 8.60.
`CC1(C)CNc2c(cccc2S(=O)(=O)N[C@@H](CCCNC(=N)N)C(=O)N2CCC(CCO)CC2)C1`: the values for the pKi in data set [4] and in [5] were 7.52 and 7.30, respectively.
For the compound `O=C(Nc1ccc2c(c1)B(O)OC2)c1ccc(F)cc1C(F)(F)F`, the pIC50 in data set [6] was 6.74.
For the compound `CC1Oc2ccc([N+](=O)[O-])cc2[C@@H](N2CCCC2=O)[C@@H]1O` (stereo not given in full), the Activity in [7] amounted to 34%.
On to `Cc1cc(O)cc(O)c1-c1cc(O)cc2cc3c(c(O)c12)C(=O)c1c(O)cc(O)c(Cl)c1C3(C)C`, for which the MIC in data set [8] came out at 0.8 mg/L (≈ 1.62 µM); in data set [9], 3.1 mg/L (≈ 6.29 µM).
On to `C=C(c1ccc(C(=O)O)cc1)c1cc2c(cc1C)C(C)(C)CCC2`, for which the pEC50 in data set [10] is 6.11; in data set [11], 6.22; in data set [12], below 5.00; in data set [13], below 5.00; in [14], below 5.00.
Compound `CC1=C[C@@H]2[C@@H]([C@@H]3[C@H]1\C=C/C=C/C=C\[C@@H](O)[C@H](C)[C@H](O)C/C=C(C)/C=C/C(=O)O[C@H]3c1ccc(O)cc1)C(C)(C)C[C@@]2(C)O` showed an MIC in data set [8] of 0.3 mg/L (≈ 0.51 µM).
As to `COc1ccc2c(c1)-c1c(cnn1C[C@H](C)N)C2(C)C`, the pKi in [3] is 8.60.
On to `CC1(C)Oc2ccc([N+](=O)[O-])cc2[C@@H](N2CCCC2=O)[C@@H]1O`, for which the Activity in data set [15] amounted to 27%; in data set [16], 63%.
On to `CNC1C[C@H]2CC[C@H]1C2` (mixture of isomers), for which the fold change (FC) in data set [17] is above 40.
For the compound `O=C1CCCN1[C@@H]1c2cc([N+](=O)[O-])ccc2OC[C@H]1O`, the Activity in data set [7] was 5%.
`CO[C@@H]1[C@@H](OC(=O)c2ccc(C)[nH]2)[C@@H](O)[C@H](Oc2ccc3c(O)c(NC(=O)c4ccc(O)c(CC=C(C)C)c4)c(=O)oc3c2Cl)OC1(C)C` [CHLOROBIOCIN] had a negative-log IC50 (pIC50) in [18] of 7.52.
`CC1(C)[C@H](C(=O)N=C(N)N)[C@H]1c1cccc2c1CCO2` gave a pIC50 in [19] of 8.00. Also, in data set [20], the CL/F was determined as 4.44 L/h/kg. Also, in data set [21], the half-life is 3 h.
As for `CC1(C)Oc2ccc(C#N)cc2C(N2CCCC2=O)C1O` (racemic) [CROMAKALIM], the Activity is recorded as 39% in data set [15], 47% in [16] and 13% in data set [22].
As to `CC(C)(Oc1cccc(-c2cn([C@H]3C[C@@H](CN4CCC4)C3)c3ncnc(N)c23)c1)[C@@H]1CCCO1`, in [23], the pIC50 is 8.00.
As for `CO[C@@H]1[C@@H](OC(N)=O)[C@@H](O)[C@H](Oc2ccc3c(O)c(NC(=O)c4ccc(O)c(CC=C(C)C)c4)c(=O)oc3c2C)OC1(C)C` [NOVOBIOCIN], the pIC50 in [18] was 7.10.
